Key:
human GPR119 [1] = molecular target: T1, human GPR119 (Homo sapiens, UniProt Q8TDV5); assay: cAMP accumulation assay (HTRF) in HEK293-hGPR119 cells; type: cell-based
T1 construct: expressed in transfected cells
T1 sequence (Q8TDV5 1-335): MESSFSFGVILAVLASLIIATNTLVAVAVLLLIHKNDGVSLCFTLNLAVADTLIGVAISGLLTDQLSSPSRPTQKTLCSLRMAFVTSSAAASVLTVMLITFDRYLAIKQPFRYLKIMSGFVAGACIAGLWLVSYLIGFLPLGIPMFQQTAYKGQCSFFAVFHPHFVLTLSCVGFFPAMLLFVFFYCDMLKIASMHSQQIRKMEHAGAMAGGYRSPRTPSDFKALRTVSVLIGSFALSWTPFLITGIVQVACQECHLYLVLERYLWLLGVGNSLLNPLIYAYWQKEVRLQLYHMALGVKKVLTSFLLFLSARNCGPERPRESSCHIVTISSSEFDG
Method: (§1) HEK293 cells stably transfected with a human GPR119 vector and a cAMP response element-driven luciferase reporter plasmid (HEK293-hGPR119 cells) and HEK293 cells transfected only with a cAMP response element-driven luciferase reporter plasmid (control HEK293 cells) were cultured in Dulbecco’s modified Eagle medium (DMEM) (Invitrogen, Carlsbad, CA, USA) supplemented with 10% fetal bovine serum (FBS), 4.5 g/l glucose, 100 units/ml penicillin and 100 µg/ml streptomycin at 37°C in 5% CO2. MIN6 cells were maintained in DMEM containing 15% FBS, 4.5 g/l glucose, 100 units/ml penicillin and 100 µg/ml streptomycin at 37°C in 5% CO2. GLUTag cells were maintained in DMEM containing 10% FBS, 1 g/l glucose, 100 units/ml penicillin and 100 µg/ml streptomycin at 37°C in 5% CO2.
cAMP accumulation was measured using HTRF-cAMP dynamic kit (Cisbio International, Gif sur Yvette Cedex, France) according to manufacturer's instructions. Briefly, HEK293-hGPR119 cells were suspended in assay buffer (DMEM, 1 mM 3-isobutyl-1-methylxanthine) and transferred to 384-well microplates (Greiner Bio-One, Frickenhausen, Germany) at a density of 16,000 cells/well. Plates were incubated for 30 min at 37°C before adding test compounds. After treatment for 30 min at 37°C, the reactions were stopped by addition of lysis buffer containing HTRF reagents. Plates were then incubated for 60 min at room temperature, and time-resolved FRET signals were measured after excitation at 320 nm. Both the emission signal from the europium cryptate-labeled anti-cAMP antibody (620 nm) and the FRET signal resulting from the labeled cAMP-d2 (665 nm) were detected by EnVision (PerkinElmer).

MIN6 cells = assay: Insulin secretion assay in MIN6 cells; type: cell-based, mouse; settings: for glucose-stimulated insulin secretion vs DMSO control: 16.8 mM glucose, 1 h, MW1219 at 15 µM and 50 µM (P<0.05), OEA at 10 µM (P<0.01)
Method: as §1
Insulin-secreting MIN6 cells were plated in 96-well plates (20,000 cells per well) for 2 days. On the day of experiment, culture medium was aspirated and cells were washed twice with KRBH buffer. Cells were then placed at 37°C for 30 min in KRBH containing 2.8 mM glucose. Test compounds were dissolved in either 2.8 or 16.8 mM glucose medium and added to cells for 1 h. The supernatants were collected by centrifugation at 800×g for insulin measurements. Insulin content in the supernatant was determined using an insulin ELISA kit from Linco Research Laboratory (Billerica, MA, USA).
(§2) MIN6 and GLUTag cells were cultured as described above. siRNA targeting murine GPR119 coding sequences (Forward: 5′-[…]-3′, Reverse: 5′-[…]-3′) was purchased from GenePharma company (Shanghai, China). Transfection was performed using siRNA and Lipofectamine 2000 (Invitrogen, Burlington, ON, Canada) as instructed by the manufacturer. After 36 h, knockdown efficiency of siRNA was quantified by real-time RT-PCR, and cells were used for secretion experiments.

human GPR119 [2] = molecular target: T1, human GPR119; assay: Reporter gene assay (CRE-luciferase) in HEK293-hGPR119 cells; type: cell-based; settings: for allosteric modulation of OEA potency: compound added to OEA concentration response
Method: as §1
HEK293-hGPR119 cells or control HEK293 cells were seeded onto 384-well plates with a density of 16,000 cells per well. At the time of assaying, AR-231453 or test compounds dissolved in DMSO were added. After 42 h of incubation at 37°C and 5% CO2 in a cell culture incubator, cells were lysed and quantified for luciferase activity using the Steady-Glo luciferase assay system (Promega, Madison, WI, USA) according to manufacturer’s protocol. For allosteric activity studies, test compounds were 5-fold serially diluted and added to AR-231453 or OEA concentration response reaction. Luciferase signals were determined with EnVision (PerkinElmer, Boston, MA, USA).

GLUTag cells = assay: GLP-1 release assay in GLUTag cells; type: cell-based, murine; settings: for GLP-1 release, low glucose medium: 2.8 mM glucose
Method: as §1
GLUTag cells were plated in 24-well plates on day 1 in low glucose DMEM supplemented with 10% FBS. Culture medium was replaced with DMEM (2.8 mM glucose) supplemented with 10% FBS 24 h before analysis of GLP-1 release. On the day of experiment, cells were washed twice with PBS and incubated with different compounds at desired concentrations in serum-free DMEM with 2.8 mM or 16.8 mM glucose for 1 h at 37°C and 5% CO2. The supernatants were collected by centrifugation for 3 min. GLP-1 in the supernatant was detected by a GLP-1 ELISA kit (Linco Research Laboratory).
as §2

db/db mice [3] = tested on: db/db mice; design: method as in the literature (reference number not given); settings: ref the literature (reference number not given); cited from earlier work
db/db mice [4] = assay: Chronic oral treatment of diabetic db/db mice; type: in vivo; settings: for food intake and body weight: 6-week once-daily oral treatment; for inhibition of glycemic excursion, oral glucose tolerance test, vs vehicle: glucose 3 g/kg
Method: Animal experimentation was conducted in accordance with the regulations adopted by the Animal Care and Use Committee, Shanghai Institute of Materia Medica, Chinese Academy of Sciences (approval number: SIMM-2012-07-WMW-04). Male C57BL/KsJ db/db mice (Model Animal Research Center of Nanjing University, Nanjing, China) were housed in a temperature-controlled room (22±2°C), with a light/dark cycle of 12 h. At 6 weeks of age, mice were randomly assigned to chronic treatments. The experimental groups and respective doses of compounds were as follows: (1) 0.5% w/v sodium carboxyl methyl cellulose (CMC), (2) 10 mg/kg AR-231453, (3) 1 mg/kg sitagliptin (Beijing Huikang Boyuan Chemical Technology Co., Ltd., Beijing, China), (4) 10 mg/kg AR-231453 plus 1 mg/kg sitagliptin, (5) 100 mg/kg MW1219, and (6) 100 mg/kg MW1219 plus 1 mg/kg sitagliptin. Each regimen was administered once daily by oral gavaging for 6 weeks. Body weight and food intake were recorded every other day and fasting glucose levels measured every week. Oral glucose tolerance test was performed in overnight-fasting mice every other week. After six weeks of treatment, HbA1c were quantified, plasma insulin and GLP-1 contents were measured using respective ELISA kit. For oral glucose tolerance test, overnight fasting mice (n = 6/treatment) were given compounds orally at desired doses and after 30 min, an oral glucose bonus (3 g/kg) was delivered. Plasma glucose levels were determined at desired time points over a 2-h period using blood collected from the tail vein. For circulating GLP-1 analysis, compounds were administered orally to fasting animals followed by an oral glucose bolus (3 g/kg) 30 min later. Blood was drawn 2 min thereafter in Eppendorf tubes containing EDTA and a DPP-4 inhibitor. Plasma samples were obtained via centrifugation and assayed for active GLP-1 by the ELISA kit. Blood was collected again after 20 min to determine insulin levels.

control HEK293 cells [5] = assay: Reporter gene assay in control HEK293 cells (no GPR119); type: cell-based
Method: as §1
HEK293-hGPR119 cells or control HEK293 cells were seeded onto 384-well plates with a density of 16,000 cells per well. At the time of assaying, AR-231453 or test compounds dissolved in DMSO were added. After 42 h of incubation at 37°C and 5% CO2 in a cell culture incubator, cells were lysed and quantified for luciferase activity using the Steady-Glo luciferase assay system (Promega, Madison, WI, USA) according to manufacturer’s protocol. […] Luciferase signals were determined with EnVision (PerkinElmer, Boston, MA, USA).

control HEK293 cells [6] = assay: cAMP accumulation assay in control HEK293 cells; type: cell-based
Method: as §1
cAMP accumulation was measured using HTRF-cAMP dynamic kit (Cisbio International, Gif sur Yvette Cedex, France) according to manufacturer's instructions. […] Plates were then incubated for 60 min at room temperature, and time-resolved FRET signals were measured after excitation at 320 nm. Both the emission signal from the europium cryptate-labeled anti-cAMP antibody (620 nm) and the FRET signal resulting from the labeled cAMP-d2 (665 nm) were detected by EnVision (PerkinElmer).

[7] = MW1219 0 μM (Table S3), read-out: EC50 of OEA
[8] = in presence of MW1219 1 μM, read-out: EC50 of OEA
[9] = in presence of MW1219 10 μM, read-out: EC50 of OEA
[10] = HEK293-hGPR119 cells, 42 h incubation, read-out: EC50, luciferase expression
[11] = reporter gene and cAMP accumulation assays
[12] = MW1219 100 mg/kg, sitagliptin 1 mg/kg
[13] = 100 mg/kg MW1219 plus 1 mg/kg sitagliptin, oral, once daily, 6 weeks

CCCCCCCC/C=C\CCCCCCCC(=O)NCCO [OEA, oleoylethanolamide]
EC50 (human GPR119 [1]; [7]): 1690 ± 170 nM
EC50 (human GPR119 [1]; [8]): 1830 ± 240 nM
EC50 (human GPR119 [1]; [9]): 1410 ± 110 nM
glucose-stimulated insulin secretion vs DMSO control (MIN6 cells): elevated insulin significantly
efficacy on GPR119 (human GPR119 [2]; 1 µM OEA, HTS luciferase assay): 15%
EC50 (human GPR119 [2]; AR-231453 0 nM (Table S1), read-out: EC50 of OEA): 2810 ± 210 nM
EC50 (human GPR119 [2]; [10]): 2780 ± 180 nM
EC50 (human GPR119 [2]; [7]): 2890 ± 610 nM
EC50 (human GPR119 [2]; [8]): 3090 ± 680 nM
EC50 (human GPR119 [2]; [9]): 2560 ± 470 nM
allosteric modulation of AR-231453 potency (human GPR119 [2]; reporter gene and cAMP accumulation assays, compound added to AR-231453 concentration response): did not alter the potency of AR-231453
GLP-1 release, low glucose medium (GLUTag cells; 1 h): Neither MW1219 nor OEA exhibited any effect

CC(C)c1noc(C2CCN(c3ncnc(Nc4ccc(S(C)(=O)=O)cc4F)c3[N+](=O)[O-])CC2)n1 [AR-231453]
EC50 (human GPR119 [1]; OEA 0 μM (Table S2), read-out: EC50 of AR-231453): 1.19 ± 0.16 nM
reduction of food intake (db/db mice [3]): only at very high doses
feeding and weight gain (db/db mice [4]; AR-231453 in combination with sitagliptin): did not induce noticeable effects
allosteric modulation of OEA potency (human GPR119 [2]; [11]): without affecting its potency

N[C@@H](CC(=O)N1CCn2c(nnc2C(F)(F)F)C1)Cc1cc(F)c(F)cc1F [sitagliptin, reference compound]
HbA1c change (db/db mice [4]; 1 mg/kg sitagliptin, oral, once daily, 6 weeks): no difference
food intake and body weight (db/db mice [4]; [12]): failed to suppress food intake and decrease body weight
plasma GLP-1 levels (db/db mice [4]; sitagliptin 1 mg/kg): raised plasma GLP-1 levels

CCOC(=O)c1ccc2oc3ccc(O)cc3c(=O)c2c1 [MW1219]
activity on luciferase expression in the absence of GPR119 (control HEK293 cells [5]): did not show any activity
efficacy compared to forskolin (control HEK293 cells [5]; Figure 2C): 10%
efficacy, cAMP accumulation, relative to forskolin (human GPR119 [1]; 50 µM MW1219, HEK293-hGPR119 cells): about 40%
insulin secretion after GPR119 siRNA knockdown (MIN6 cells; 15 µM MW1219, GPR119 siRNA-treated MIN6 cells): suppressed by siRNA
insulin release under low glucose (MIN6 cells; 2.8 mM glucose): no effect
glucose-stimulated insulin secretion vs DMSO control (MIN6 cells): elevated insulin significantly
circulating GLP-1 levels (db/db mice [4]; 100 mg/kg MW1219, 6 weeks, 2 min after oral glucose 3 g/kg): not elevated
insulin response to a glucose bolus (db/db mice [4]; 100 mg/kg MW1219, 6 weeks, 20 min after oral glucose 3 g/kg): notably more pronounced than that of controls
inhibition of glycemic excursion, oral glucose tolerance test, vs vehicle (db/db mice [4]; 100 mg/kg MW1219, after 6 weeks, P<0.05): 8.6%
reduction of fasting blood glucose vs control (db/db mice [4]; 100 mg/kg MW1219, oral, once daily, 6 weeks): 16%
HbA1c decrease compared with the control (db/db mice [4]; 100 mg/kg MW1219, oral, once daily, 6 weeks, P<0.05): 0.67%
inhibition of glycemic excursion, oral glucose tolerance test, vs vehicle (db/db mice [4]; 100 mg/kg MW1219 plus 1 mg/kg sitagliptin, after 6 weeks, P<0.001): 18.6%
HbA1c change (db/db mice [4]; [13]): no difference
fasting blood glucose vs mice that received sitagliptin alone (db/db mice [4]; [13]): significantly lower
reduction of fasting blood glucose vs control (db/db mice [4]; [13]): 29%
food intake and body weight (db/db mice [4]; [12]): neither food intake inhibition nor weight loss
fasting plasma glucose levels and glucose tolerance, pilot dose-response studies (db/db mice [4]; MW1219 100 mg/kg, data not shown): improved both fasting plasma glucose levels and glucose tolerance
cAMP increase in control cells (control HEK293 cells [6]): had no influence
efficacy relative to forskolin in the reporter gene assay (human GPR119 [2]; HEK293-hGPR119 cells): same level of efficacy as forskolin
EC50 (human GPR119 [2]; [10]): 960 ± 80 nM
allosteric modulation of OEA potency (human GPR119 [2]; [11]): not PAM for OEA
GLP-1 release after GPR119 siRNA knockdown (GLUTag cells; 20 µM and 50 µM MW1219, siRNA-treated GLUTag cells): indistinguishable from the medium control
GLP-1 release, low glucose medium (GLUTag cells; 1 h): Neither MW1219 nor OEA exhibited any effect
GLP-1 released to supernatant, high glucose (GLUTag cells; 16.8 mM glucose, 1 h): elevated dose-dependently

Source: PMC3660563, “High-Throughput Screening for GPR119 Modulators Identifies a Novel Compound with Anti-Diabetic Efficacy in db/db Mice” (PLoS ONE, 2013)
